What was measured:
γδT cells [1] = assay: Proliferation of γδT cells from peripheral blood monocytes with compound 7, IL-7 and IL-15; format: cell-based, human; conditions: for ratio of the γδT cells: Day 11
Description: The monocytes were prepared from peripheral blood of two healthy subjects by Ficoll. Personal agreement for the blood collection was achieved based on the research ethics code of the medical school of Mie University. The monocytes adjusted to 1.5×10^6 cells/mL with the culture solution of Yssel containing 10% human AB serum were cultured for one day in the presence of tetrakispivaloyloxymethyl 2-(thiazole-2-ylamino) ethylidene-1,1-bisphosphonate (compound 7, 1 μM), and then added with 25 ng/mL of IL-7 (Miltenyi Biotec, catalog number: 170-076-111) and 25 ng/mL of IL-15 (Miltenyi Biotec, catalog number: 170-076-114), and further cultured for 10 days. The frequency of the γδT cells in the monocyte population were analyzed by flow cytometry (FACSCANTO II, Becton Dickinson). As a result, the ratio of the γδT cells at the start of culture (Day 0) was 2.7% for donor 1 (HD1) and 1.7% for donor 2 (HD2), respectively. […] Peripheral blood of healthy human normally contains 1 to 3% of the γδT cells. However, approximately 1×10^8 of γδT cell populations could be prepared in high-purity from 1.5 mL of peripheral blood.
A culture solution of Yssel containing 10% human AB serum was used as the culture solution. As a result, rapid cell proliferation was observed from about Day 8 after the culture. The number of cells on Day 13 was 3×10^8, which was about 5000 times (FIG. 1B).
As comparison, IL-7 and IL-15 in the culture solution were replaced by IL-2 (PROLEUKIN, Chiron Therapeutics), and monocytes were cultured.

γδT cells [2] = assay: Comparison of compound 7 with zoledronate: proliferation and purity of γδT cells (IL-2 culture); format: cell-based, human; conditions: for effect on cell proliferation: Day 8, IL-2 300 U/mL
Description: Peripheral blood monocytes were collected from healthy subjects (n=8, HD1 to HD8) in two experiments (n=4 in each experiment). On Day 0, 1.5×10^6 of the collected peripheral blood monocytes were added to each well of 24-well plate. […] Then, on Day 1, IL-2 (300 U/mL) was added. The IL-2 is a cytokine used for the proliferation of the γδT cells according to the reports (non-patent documents 5 and 6). On Day 6, the cells of one well were diluted 2-fold into two wells. The number of cells was counted. On Day 7, the cells of two wells were diluted 2-fold into four wells, and IL-2 (300 U/mL) was further added. On Day 8, half-volume (about 3 mL) of the cells were diluted 6-fold to 18 mL, and cultured in a T75 flask. On Day 8 and Day 11, the number of cells was counted and cell purity was measured by flow cytometry analysis.

[3] = compound 7 1 μM vs zoledronate 5 μM
[4] = compound 7 1 μM, IL-7 and IL-15 25 ng/mL

Row | Molecule | effect of promoting cell proliferation by IL-7 and IL-15 on further addition of IL-2 (γδT cells [1]; monocytes stimulated with compound 7) | effect on cell proliferation (γδT cells [2]; [3]) | frequency of the γδT cells in lymphocyte fraction (P1) (Vd2/P1) (γδT cells [2]; Day 8 and Day 11, compared to the zoledronate treatment group, t test) | cell proliferation-stimulating effect compared to zoledronate (γδT cells [2]; Day 11, Experiment 1, subjects HD1 to HD4, compound 7 1 μM vs zoledronate 5 μM) | cell proliferation-stimulating effect compared to zoledronate (γδT cells [2]; Day 11, Experiment 2, subject) | cell proliferation-stimulating effect compared to zoledronate (γδT cells [2]; Day 11, Experiment 2, subject HD8) | cell proliferation-stimulating effect compared to zoledronate (γδT cells [2]; Day 11, Experiment 2, subjects HD6 and HD7) | proliferation of γδT cells compared to zoledronate, average (γδT cells [2]; Day 11, Experiments 1 and 2, n=8, p=0.008, t test) | frequency of the γδT cells in CD3 positive cells (Vd2/CD3) (γδT cells [2]; compared to the zoledronate treatment group, t test) | start of rapid cell proliferation (γδT cells [1]; [4]) [days] | γδT cell populations prepared in high-purity from 1.5 mL of peripheral blood (γδT cells [1]; [4]) | ratio of the γδT cells (γδT cells [1]; donor 1 (HD1), compound 7 1 μM, IL-7 and IL-15 25 ng/mL, 2.7% at Day 0) [%] | ratio of the γδT cells (γδT cells [1]; donor 2 (HD2), compound 7 1 μM, IL-7 and IL-15 25 ng/mL, 1.7% at Day 0) [%] | number of cells on Day 13 (γδT cells [1]; from 3×10^6 monocytes (3 mL peripheral blood), compound 7 1 μM, IL-7 and IL-15 25 ng/mL) | fold increase of cells on Day 13 (γδT cells [1]; from 3×10^6 monocytes, compound 7 1 μM, IL-7 and IL-15 25 ng/mL)
1 | IL-2: interleukin-2 (PROLEUKIN, Chiron Therapeutics), cytokine used for proliferation of γδT cells | not further increased |  |  |  |  |  |  |  |  |  |  |  |  |  | 
2 | O=P(O)(O)C(O)(Cn1ccnc1)P(=O)(O)O [zoledronate, reference compound] |  | almost no difference |  |  |  |  |  |  |  |  |  |  |  |  | 
3 | CC(C)(C)C(=O)OCOP(=O)(OCOC(=O)C(C)(C)C)C(CNc1nccs1)P(=O)(OCOC(=O)C(C)(C)C)OCOC(=O)C(C)(C)C [compound 7, tetrakispivaloyloxymethyl 2-(thiazole-2-ylamino)ethylidene-1,1-bisphosphonate] |  | almost no difference | significantly higher | strongly recognized | the same level | weak | greater | significantly excellent | significantly higher | ~8 | approximately 1×10^8 | 97.1 | 94.5 | 3×10^8 | about 5000 times
